Measured values reported in PubChem BioAssay (NCI).
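In this assay, cells in 96-well plates receive the compound at five concentrations for 48 hours. Endpoints are linearly interpolated between the surrounding concentrations. At the TGI there is no net growth.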

Key:
Assay in all cases: NCI tumour cell line growth inhibition, 48 h
HT29 colon = tested on: HT29 colon
UACC-62 melanoma = tested on: UACC-62 melanoma
OVCAR-3 ovarian = tested on: OVCAR-3 ovarian
NCI-H522 lung = tested on: NCI-H522 lung
SK-OV-3 ovarian = tested on: SK-OV-3 ovarian
MCF7 breast = tested on: MCF7 breast
OVCAR-4 ovarian = tested on: OVCAR-4 ovarian
DLD-1 colon = tested on: DLD-1 colon
IGROV1 ovarian = tested on: IGROV1 ovarian
KM12 colon = tested on: KM12 colon
DMS 114 small cell lung = tested on: DMS 114 small cell lung
UACC-257 melanoma = tested on: UACC-257 melanoma
HOP-92 NSCLC = tested on: HOP-92 NSCLC
KM20L2 colon = tested on: KM20L2 colon
P388 leukemia = tested on: P388 leukemia
SNB-75 CNS = tested on: SNB-75 CNS
XF 498 CNS = tested on: XF 498 CNS
HCC-2998 colon = tested on: HCC-2998 colon
HCT-15 colon = tested on: HCT-15 colon
SK-MEL-5 melanoma = tested on: SK-MEL-5 melanoma
CCRF-CEM leukemia = tested on: CCRF-CEM leukemia
COLO 205 colon = tested on: COLO 205 colon
SW-620 colon = tested on: SW-620 colon
NCI-H23 lung = tested on: NCI-H23 lung
SF-268 CNS = tested on: SF-268 CNS
SN12K1 renal = tested on: SN12K1 renal
SK-MEL-28 melanoma = tested on: SK-MEL-28 melanoma
P388/ADR leukemia = tested on: P388/ADR leukemia
HOP-18 NSCLC = tested on: HOP-18 NSCLC
SF-539 CNS = tested on: SF-539 CNS
HL-60(TB) leukemia = tested on: HL-60(TB) leukemia
CAKI-1 renal = tested on: CAKI-1 renal
U251 CNS = tested on: U251 CNS
NCI-H460 lung = tested on: NCI-H460 lung
M19-MEL melanoma = tested on: M19-MEL melanoma
K-562 leukemia = tested on: K-562 leukemia
RXF 393 renal = tested on: RXF 393 renal
SN12C renal = tested on: SN12C renal
A498 renal = tested on: A498 renal
SNB-78 CNS = tested on: SNB-78 CNS
NCI/ADR-RES ovarian = tested on: NCI/ADR-RES ovarian
DMS 273 small cell lung = tested on: DMS 273 small cell lung
UO-31 renal = tested on: UO-31 renal
EKVX NSCLC = tested on: EKVX NSCLC
NCI-H226 lung = tested on: NCI-H226 lung
MALME-3M melanoma = tested on: MALME-3M melanoma
A549 NSCLC = tested on: A549 NSCLC
HCT-116 colon = tested on: HCT-116 colon
SK-MEL-2 melanoma = tested on: SK-MEL-2 melanoma
OVCAR-5 ovarian = tested on: OVCAR-5 ovarian
SF-295 CNS = tested on: SF-295 CNS
OVCAR-8 ovarian = tested on: OVCAR-8 ovarian
LOX IMVI melanoma = tested on: LOX IMVI melanoma
HOP-62 NSCLC = tested on: HOP-62 NSCLC
SNB-19 CNS = tested on: SNB-19 CNS

CC(C)(C)c1ccc2c(c1)OP1(Oc3cccc4cccnc34)(O2)Oc2ccc(C(C)(C)C)cc2O1
TGI (HT29 colon): 15.4 µM | TGI (UACC-62 melanoma): 12.2 µM | TGI (OVCAR-3 ovarian): 6.44 µM | TGI (NCI-H522 lung): 26.4 µM | TGI (SK-OV-3 ovarian): > 92.1 µM | TGI (MCF7 breast): 5.48 µM | TGI (OVCAR-4 ovarian): 6.14 µM | TGI (DLD-1 colon): 21.2 µM | TGI (IGROV1 ovarian): 18.3 µM | TGI (KM12 colon): 21.3 µM | TGI (DMS 114 small cell lung): 5.97 µM | TGI (UACC-257 melanoma): > 30.4 µM | TGI (HOP-92 NSCLC): > 100 µM | TGI (KM20L2 colon): 15.4 µM | TGI (P388 leukemia): 2.64 µM | TGI (SNB-75 CNS): > 54.2 µM | TGI (XF 498 CNS): 7.56 µM | TGI (HCC-2998 colon): 24.1 µM | TGI (HCT-15 colon): 15.3 µM | TGI (SK-MEL-5 melanoma): 13.7 µM | TGI (CCRF-CEM leukemia): > 25.2 µM | TGI (COLO 205 colon): 9.02 µM | TGI (SW-620 colon): > 31.8 µM | TGI (NCI-H23 lung): 10.2 µM | TGI (SF-268 CNS): 26.7 µM | TGI (SN12K1 renal): 14.2 µM | TGI (SK-MEL-28 melanoma): > 84.9 µM | TGI (P388/ADR leukemia): 4.69 µM | TGI (HOP-18 NSCLC): > 60.5 µM | TGI (SF-539 CNS): 30.2 µM | TGI (HL-60(TB) leukemia): 6.82 µM | TGI (CAKI-1 renal): > 23.5 µM | TGI (U251 CNS): 43.8 µM | TGI (NCI-H460 lung): 12.7 µM | TGI (M19-MEL melanoma): 33.5 µM | TGI (K-562 leukemia): 37.5 µM | TGI (RXF 393 renal): 16.9 µM | TGI (SN12C renal): 52.9 µM | TGI (A498 renal): 34.9 µM | TGI (SNB-78 CNS): > 100 µM | TGI (NCI/ADR-RES ovarian): 11.1 µM | TGI (DMS 273 small cell lung): 13.8 µM | TGI (UO-31 renal): 13.4 µM | TGI (EKVX NSCLC): 35.9 µM | TGI (NCI-H226 lung): 30.9 µM | TGI (MALME-3M melanoma): 51.3 µM | TGI (A549 NSCLC): > 54.7 µM | TGI (HCT-116 colon): 15.2 µM | TGI (SK-MEL-2 melanoma): 43.8 µM | TGI (OVCAR-5 ovarian): 32 µM | TGI (SF-295 CNS): 42.6 µM | TGI (OVCAR-8 ovarian): > 100 µM | TGI (LOX IMVI melanoma): 17.7 µM | TGI (HOP-62 NSCLC): 62.1 µM | TGI (SNB-19 CNS): > 100 µM
